From ChEMBL document CHEMBL1201862, “PubChem BioAssay data set” (2004)
The source made the active and inactive calls. Cut-off read from the data, not from the text of the source, for most assays here: actives have a measured EC50 and inactives only a lower limit.

How the values were obtained:
[1] = Luminescence Cell-Based Dose Response HTS to Identify Activators of Luciferase Translation or Activity in H4 […] Cells. [Related pubchem assays: 1829 (Project Summary), 1814 (Primary HTS)]; assay type: functional
H4 = assay: Luminescence Cell-Based Dose Response HTS to Identify Activators of 5'UTR Stem-Loop Driven Prion Protein mRNA Translation in H4 Neuroglioblastoma Cells. [Related pubchem assays: 1829 (Project Summary), 1814 (Primary HTS)]; assay type: functional; details: Homo sapiens
[2] = Luminescence Cell-Based Dose Confirmation HTS to Identify Activators of 5'UTR Stem-Loop Driven Alpha-Synuclein mRNA Translation in H4 Neuroglioblastoma Cells. [Related pubchem assays: 1829 (Project Summary), 1814 (Primary HTS)]; assay type: functional
[3] = viability of uninfected HEp-2 cells – cell-based, HTS, cytotoxicity control for RSV inhibitor project, dose response (AID 2410); assay type: functional; details: human respiratory syncytial virus
Streptokinase A = target: T1, Streptokinase A (Streptococcus pyogenes serotype M1, UniProt P10520); assay: viability-normalized secreted streptokinase activity reduction – plasminogen activation absorbance, OD405, dose response (AID 1914); assay type: functional, Streptococcus pyogenes M1 GAS;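 note: secreted streptokinase activity via plasminogen activation per viability signal from cell pellet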
T1 sequence (P10520 whole entry): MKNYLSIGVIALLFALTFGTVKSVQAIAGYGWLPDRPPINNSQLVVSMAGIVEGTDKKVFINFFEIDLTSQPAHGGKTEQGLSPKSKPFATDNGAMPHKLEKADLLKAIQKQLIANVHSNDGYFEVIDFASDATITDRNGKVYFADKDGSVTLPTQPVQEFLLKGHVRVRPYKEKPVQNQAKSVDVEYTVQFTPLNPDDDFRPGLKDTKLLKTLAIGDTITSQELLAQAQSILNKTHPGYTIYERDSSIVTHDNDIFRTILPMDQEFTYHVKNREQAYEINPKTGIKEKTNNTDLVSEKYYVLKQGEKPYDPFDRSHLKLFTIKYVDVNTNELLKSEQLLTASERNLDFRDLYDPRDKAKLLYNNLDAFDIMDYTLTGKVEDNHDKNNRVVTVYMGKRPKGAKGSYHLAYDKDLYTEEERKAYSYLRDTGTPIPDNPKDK

[4] = target: T2, Heat shock factor protein 1 (Mus musculus, UniProt P38532); assay: enhancement of HSF1-driven luciferase signal – cell-based, NIH3T3, luminescence, dose retest, confirmation (AID 435004); assay type: functional;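 note: stress induced by proteasome inhibitor MG132 added 30 min after compound; luciferase reporter driven by HSF1 response element in NIH3T3 cells; actives raise luminescence as potentiators of the MG132 stress response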
T2 sequence (P38532 whole entry): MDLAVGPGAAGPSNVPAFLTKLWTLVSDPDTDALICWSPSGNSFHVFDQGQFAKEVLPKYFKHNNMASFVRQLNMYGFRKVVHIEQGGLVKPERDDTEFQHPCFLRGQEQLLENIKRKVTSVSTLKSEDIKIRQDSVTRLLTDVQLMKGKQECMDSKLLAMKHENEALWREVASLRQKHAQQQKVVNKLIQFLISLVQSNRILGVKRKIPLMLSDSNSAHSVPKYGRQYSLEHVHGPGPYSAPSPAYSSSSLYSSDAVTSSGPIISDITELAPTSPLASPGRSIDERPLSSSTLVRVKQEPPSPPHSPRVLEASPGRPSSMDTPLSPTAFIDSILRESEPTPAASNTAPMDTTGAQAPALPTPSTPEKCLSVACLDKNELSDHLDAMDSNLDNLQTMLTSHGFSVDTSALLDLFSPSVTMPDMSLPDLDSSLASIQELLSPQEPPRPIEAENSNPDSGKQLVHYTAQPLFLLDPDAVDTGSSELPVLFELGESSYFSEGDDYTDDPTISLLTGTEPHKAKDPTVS

[5] = test system: Streptococcus sp. 'group A'; assay: Streptococcus pyogenes SK(-)GAS viability under kanamycin – luminescence, BacTiterGlo, confirmation, counter-screen for streptokinase expression inhibitor project, dose response (AID 1900); assay type: functional, organism-based
Streptococcus = assay: GAS UMAA2166 growth inhibition – luminescence, BacTiterGlo, counter-screen for streptokinase expression inhibitor project, dose response (AID 1915); assay type: functional, organism-based;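 note: potency for reduction of bacterial viability or growth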
[6] = target: T2, Heat shock factor protein 1; assay: decrease of HSF1-responsive luciferase luminescence – cell-based, NIH3T3, dose retest, confirmation (AID 2382); assay type: functional;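 note: NIH3T3 fibroblasts with HSF1-driven luciferase reporter stressed by proteasome inhibitor MG132; luminescence from HSF1-driven luciferase expression after 8 hours of MG132 stress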
H9c2 = assay: cells; assay type: functional, cell-based; details: Rattus norvegicus, H9c2, Myocardium
[7] = luciferase reporter signal suppression in cells – H4 neuroglioma cells, luminescence, dose response (AID 1990); assay type: functional, cell-based
[8] = alpha-synuclein stem-loop luciferase translation blockers – H4 neuroglioma cells, luminescence, confirmation (AID 1988); assay type: functional, cell-based
[9] = Luminescence Cell-Based Dose Response HTS to Identify Inhibitors of 5'UTR Stem-Loop Driven Prion Protein mRNA Translation in H4 Neuroglioblastoma Cells. [Related pubchem assays: 1827 (Project Summary), 1813 (Primary HTS)]; assay type: functional
[10] = Luminescence Cell-Based Dose Retest to Confirm Inhibitors of Cancer Stem Cells. [Related pubchem assays (depositor defined):AID2717, AID2721]; assay type: functional; details: Homo sapiens
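Throughout, for AC50: cells exposed to compound for roughly 70 hours or longer before luminescence read.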
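Throughout, for IC50: confirmatory concentration-response retest of ultra-high-throughput screening hits for modulation of myocardial damage; cell death induced by hydrogen peroxide oxidative stress; compound pretreatment for 60 min then peroxide exposure for 2 h; potency is for protecting the cells against peroxide damage rather than for killing them.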

## O=C(CSc1ncnc2ccccc12)c1ccc2c(c1)OCCO2
[1]
  EC50: 90.6 µM (active)
H4
  EC50: > 120 µM (not active)
[2]
  EC50: 12.9 µM (active)

## O=[N+]([O-])c1ccc(N2CCc3ccccc3C2)nc1
[3]
  CC50: 19.6 µM (active)

## Cc1nnc(SC(C(=O)Nc2cc(Cl)cc(Cl)c2)c2ccccc2)[nH]c1=O (stereo not drawn)
Streptokinase A
  EC50: > 150 µM (not active)

## CCOC(=O)Cc1cnc(NC(=O)NC(C(=O)OCC)(c2ccccc2)C(F)(F)F)s1 (stereo not drawn)
[4]
  EC50: > 260 µM (inactive)

## COc1ccccc1N1CCN(C(=O)c2sc3nc(C)nc(N4CCN(c5ccccn5)CC4)c3c2C)CC1
[3]
  CC50: 20 µM (active)

## Cc1nc(-c2ccccc2)nc2[nH]c(=O)n(-c3ccccc3)c(=O)c12
[1]
  EC50: 8.63 µM (active)
H4
  EC50: > 120 µM (not active)
[2]
  EC50: 16.6 µM (active)

## O=S(=O)(c1ccccc1)N1CCCC(c2nc(O)c3nnn(Cc4cccc(Cl)c4)c3n2)C1 (stereo not drawn)
[3]
  CC50: 13.1 µM (active)

## N#Cc1c(N)nc2c(c1N)CC(COc1ccccc1)O2 (stereo not drawn)
[1]
  EC50: 20.2 µM (active)
H4
  EC50: 10.7 µM (active)
[2]
  EC50: 47.2 µM (active)

## CC(=O)Nc1ccc(Nc2nc3c(S(=O)(=O)c4ccc(C)c(C)c4)nnn3c3ccccc23)cc1
[4]
  EC50: 112 µM (active)

## Cc1ccc(Cl)cc1N1CCN(C2CCCCC2NS(=O)(=O)c2ccccc2)CC1 (stereo not drawn)
[4]
  EC50: > 260 µM (inactive)

## Cc1ccc(NC(=O)c2ccccc2O)cc1
[4]
  EC50: 35.5 µM (active)

## O=C1N=C(Nc2ccc(Cl)cc2)SC1Cc1cc(Cl)ccc1Cl (stereo not drawn)
[5]
  EC50: 2.64 µM (active)
Streptokinase A
  EC50: > 150 µM (not active)
Streptococcus
  EC50: 7.38 µM (active)

## Fc1cccc(CSc2nc3cc[nH]cc-3n2)c1
[1]
  EC50: 38.2 µM (active)
H4
  EC50: 19.2 µM (active)
[2]
  EC50: 39.2 µM (active)

## Cc1nc(NC(=O)/C=C/c2ccc(Cl)cc2Cl)sc1C(=O)N(C)C
[6]
  EC50: > 195 µM (not active)

## Cc1ccc(S(=O)(=O)NCCC(=O)N2CCN(S(=O)(=O)c3ccccc3)CC2)cc1C
[6]
  EC50: > 195 µM (not active)

## CCCN1C(=O)/C(=C/c2c[nH]nc2-c2ccccc2)SC1=S
[3]
  CC50: 20.7 µM (active)

## O=C1CCCN1CCC1CCN(C(=O)Nc2ccccc2)CC1
[6]
  EC50: > 195 µM (not active)

## CCN(CC)c1ccc([N+](=O)[O-])cc1C(=O)N1CCOCC1
[4]
  EC50: > 260 µM (inactive)

## Cn1cccc1C(=O)OCC(=O)Nc1ccc2c(c1)CCC2
[1]
  EC50: 14.5 µM (active)
H4
  EC50: 47.9 µM (inconclusive)
[2]
  EC50: 6.37 µM (active)

## O=C(Nc1ccc(Nc2ccccc2)cc1)c1ccc(Cl)c([N+](=O)[O-])c1
[3]
  CC50: 18.7 µM (active)

## CCN(CC)C(=O)CCc1nnc(Cc2cccc(C(F)(F)F)c2)o1
[1]
  EC50: 14.5 µM (active)
H4
  EC50: > 120 µM (not active)
[2]
  EC50: 12.5 µM (active)

## O=C(CCc1nc(O)c2ccccc2n1)NCC(=O)Nc1ccc(F)c(F)c1
H9c2
  IC50: 25.2 µM (active)

## Clc1c(-c2nnc3n2CCC3)sc2ccccc12
[3]
  CC50: 30.9 µM (active)

## O=C(CN1CCN(c2ccc(F)cc2)CC1)Nc1cccc(C(F)(F)F)c1
[3]
  CC50: 29.2 µM (active)

## Cc1ccc(C(=O)O/N=C(\N)Cc2ccc([N+](=O)[O-])cc2)c(Cl)c1
[1]
  EC50: > 120 µM (not active)
H4
  EC50: 28.6 µM (active)
[2]
  EC50: > 120 µM (not active)

## CCN(CC)S(=O)(=O)c1cc(C(=O)Nc2cc(C)on2)ccc1Cl
[6]
  EC50: > 195 µM (not active)

## CC(C)c1ccc(NC(=O)CNC(=O)Cn2cnc3ccccc3c2=O)cc1
[6]
  EC50: 60.8 µM (active)

## CN(C)C=O.COc1cc(/C=C/c2nc3ccccc3c(=O)n2-c2ccc(O)cc2)ccc1O
H9c2
  IC50: > 79 µM (inactive)

## CCCN=C(S)NC1CC2CCCC(C1)N2Cc1ccc(F)cc1 (stereo not drawn)
[6]
  EC50: > 195 µM (not active)

## COC(=O)c1cc(NC(=O)c2cc(-c3ccc(OC)cc3)oc2C(F)(F)F)ccc1N1CCOCC1
[3]
  CC50: 13.4 µM (active)

## COc1cc(NC(=O)c2cc(C)nc3ccccc23)cc(OC)c1
[6]
  EC50: > 195 µM (not active)

## COC(=O)c1c(C)[nH]c(C)c1-c1cccc([N+](=O)[O-])c1
[6]
  EC50: > 195 µM (not active)

## CC(Cc1ccccc1)C(=O)Nc1ccccc1 (stereo not drawn)
[6]
  EC50: > 195 µM (not active)

## c1ccn2c(SCc3cn4ccsc4n3)nnc2c1
[1]
  EC50: 2.4 µM (active)
H4
  EC50: 108 µM (active)
[2]
  EC50: 0.408 µM (active)

## Cc1ccc(C2C(C#N)=C(N)SC(N)=C2C#N)c(C)c1
[4]
  EC50: > 260 µM (inactive)

## O=C(COC(=O)Cc1nnc(O)c2ccccc12)NNC(=O)c1ccc(Cl)cc1
H9c2
  IC50: > 79 µM (inactive)

## CCCn1c(=O)c2ccccc2n2c(SCc3nc4ccccc4s3)nnc12
[1]
  EC50: 29.2 µM (active)
H4
  EC50: 5.47 µM (active)
[2]
  EC50: 0.359 µM (active)

## COc1ccc(-c2cc(C(=O)N(C)Cc3ccccc3F)c3ccccc3n2)cc1OC
H9c2
  IC50: 30.2 µM (inactive)

## CCCCn1nc(NC(=O)c2cccs2)c2cc3cc(OC)ccc3nc21
H9c2
  IC50: > 79 µM (inactive)

## CC1=CC(C)(C)N=C(Nc2ccc(C)cc2)S1
[1]
  EC50: 12.6 µM (active)
H4
  EC50: 24.4 µM (active)
[2]
  EC50: 15.2 µM (active)

## CCn1c(SCC(=O)Nc2oc(-c3ccccc3)c(-c3ccccc3)c2C#N)nnc1-c1ccco1
[5]
  EC50: 10.7 µM (active)
Streptokinase A
  EC50: 58.8 µM (active)
Streptococcus
  EC50: > 150 µM (not active)

## Cc1cc2c(cc1S(=O)(=O)N1CCc3ccccc31)NC(=O)CO2
[3]
  CC50: 13.8 µM (active)

## COCCCn1c(Cc2csc(Nc3ccc(F)cc3)n2)nnc1SCC(N)=O
[4]
  EC50: > 260 µM (inactive)

## Cc1ccc(NC(=O)C(OC(=O)c2ccc(NC(N)=O)cc2)c2ccccc2)cc1Cl (stereo not drawn)
[5]
  EC50: 9.28 µM (active)
Streptokinase A
  EC50: > 150 µM (not active)
Streptococcus
  EC50: 9.31 µM (active)

## COc1ccc(-c2cc(C(=O)NNC(=O)c3csc(N4CCOCC4)n3)c3ccccc3n2)cc1
H9c2
  IC50: > 79 µM (inactive)

## CCOC(=O)CN1CCC(c2cc(-c3ccc(Cl)cc3)[nH]n2)CC1
[4]
  EC50: > 260 µM (inactive)

## O=C(NN1C(=O)C2C(C1=O)C1C=CC2C12CC2)c1ccc(Cl)cc1 (stereo not drawn)
[4]
  EC50: > 260 µM (inactive)

## COC(=O)c1cc2ccc(OC)cc2c2cc(OC)c(OC)cc12
H9c2
  IC50: > 79 µM (inactive)

## COc1cc(/C=N/NC(=O)c2cccnc2)ccc1OS(=O)(=O)c1cc(C)ccc1C
H9c2
  IC50: > 79 µM (inactive)

## Cc1cccc(C)c1OCC(=O)N/N=C/C=C/c1ccco1
[4]
  EC50: > 260 µM (inactive)

## COc1ccc(CCCC(=O)N/N=C/c2cccc(OC)c2O)cc1C
[7]
  EC50: 11.1 µM (active)
[8]
  EC50: 10.6 µM (active)
[5]
  EC50: 2.9 µM (active)
[9]
  EC50: 48.6 µM (active)
[10]
  AC50: 0.936 µM (active)
Streptokinase A
  EC50: > 150 µM (not active)
Streptococcus
  EC50: 3.61 µM (active)

## Oc1ccc(Br)cc1/C=N/NC(=S)NCCc1ccccc1
[5]
  EC50: 1.58 µM (active)
[10]
  AC50: 4.29 µM (active)
Streptokinase A
  EC50: > 150 µM (not active)
Streptococcus
  EC50: 6.21 µM (active)

## O=C[C@H](O)[C@@H](O)[C@H](O)CO [XYLOSE]
[6]
  EC50: > 195 µM (not active)
